Eight compounds from PubChem BioAssay (NCI) can be followed below.

What all share (assay): DTP human tumour cell line panel, 48 h
In assay [1] the test system is HOP-62 NSCLC.
Assay [2] concerns NCI-H522 lung.
The subject of assay [3] is HS 578T breast.
Assay [4] has as its system KM12 colon.
Assay [5] relates to SK-MEL-2 melanoma.
In assay [6] the test system is ACHN renal.
Assay [7] deals with UO-31 renal.
Assay [8] relates to SNB-19 CNS.
Assay [9] relates to 786-0 renal.
Assay [10] has as its system SK-MEL-28 melanoma.

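Method: 48-hour compound exposure of cells in 96-well plates, five concentrations, linear interpolation of endpoints. Here, GI50 denotes the concentration required for 50% inhibition of growth. TGI marks complete inhibition of growth.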

For `O=C(Nc1nc2ccccc2s1)OCC(F)(F)F`, the GI50 in assay [1], in assay [2], in [3], in [4], in [5] and in [6] was more than 100 µM in each case. Moreover, the GI50 was 45.6 µM in [7], more than 100 µM in assay [8], more than 100 µM in [9] and more than 100 µM in [10]. Besides, the total growth inhibition concentration (TGI) in [1], in [2], in assay [3], in assay [4], in assay [5] and in assay [6] was more than 100 µM in each case. Moreover, the TGI in [7], in [8], in assay [9] and in assay [10] was more than 100 µM in each case.

`COC(=O)C1OC(O[C@H]2CCC3(C)C(CCC4(C)C3CC=C3C5CC(C)(C)CCC5(C(=O)O)CC[C@]34C)C2(C)C)C(O)C(OC2OC(CO)C(O)C(O)C2O)C1O` (stereo not given in full): the GI50 in [1] was 6.21 µM; in [2] it was 10.5 µM; in assay [3], 8.77 µM; in assay [4], 8.83 µM; in assay [5], 11.9 µM; in assay [6], 5.99 µM. The GI50 in assay [7] was more than 33.3 µM; in assay [8] it was 6.82 µM; in assay [9], 6.36 µM; in [10], 10.2 µM. Further, the TGI in [1] is 11.6 µM; in assay [2], 29 µM; in assay [3], 21.6 µM; in assay [4], 28.9 µM; in [5] it was more than 33.3 µM; in [6], 10.7 µM. Further, the TGI in [7] is more than 33.3 µM; in assay [8], 15.5 µM; in assay [9], 11.6 µM; in assay [10] it was 24.1 µM.

For `CC(C)(C)OC(=O)NC(Cc1ccccc1)C(=O)OCN1C(=O)C2C3C=CC(C2C1=O)C1C2C(=O)N(COC(=O)C(Cc4ccccc4)NC(=O)OC(C)(C)C)C(=O)C2C31` (stereo not given), the TGI was more than 100 µM in [1]; 85 µM in assay [2]; 54.3 µM in assay [3]; more than 100 µM in [4]; 98.5 µM in assay [5]; more than 100 µM in assay [6]. For the same compound, the concentration for total growth inhibition (TGI) in assay [7] is more than 87.9 µM; in assay [8], more than 82.7 µM; in assay [9], more than 100 µM; in assay [10], more than 100 µM.

Regarding `COc1cc2ncn(-c3cc(OCc4ccccc4Cl)c(C(N)=O)s3)c2cc1OC`, the GI50 was 0.217 µM in assay [1]; 0.13 µM in assay [2]; 0.609 µM in assay [3]; 0.0806 µM in [4]; 1.5 µM in assay [5]; 1.58 µM in assay [6]. For the same compound, the GI50 in assay [7] was 1.14 µM; in assay [8] it was 1 µM; in assay [9] it was 0.873 µM; in assay [10], 1.46 µM. For the same compound, the concentration for total growth inhibition (TGI) in assay [1] was 7.15 µM; in assay [2], 1.13 µM; in assay [3], 5.77 µM; in [4], more than 11.8 µM; in assay [5], more than 15.9 µM; in [6], more than 25 µM. The total growth inhibition concentration (TGI) in assay [7] is more than 25 µM; in assay [8] it was more than 25 µM; in assay [9] it was more than 22.8 µM; in [10], more than 25 µM.

`N#Cc1c(-c2cccs2)c2c(=S)[nH]c(=S)[nH]c2[nH]c1=S`: the GI50 was more than 100 µM in [1]; 29.1 µM in [2]; 53.7 µM in assay [3]; 28.6 µM in assay [4]; 32.9 µM in [5]; 23.8 µM in assay [6]. Further, the GI50 was 40.6 µM in assay [7], 75.7 µM in [8], 36.4 µM in assay [9] and 22.4 µM in [10]. Moreover, the TGI in assay [1] is more than 100 µM; in [2] it was 79 µM; in assay [3] it was 90.3 µM; in [4] it was more than 100 µM; in assay [5], 80.9 µM; in [6] it was 67.6 µM. Also, the TGI in assay [7] is 92.6 µM; in assay [8], more than 100 µM; in [9], more than 100 µM; in assay [10] it was more than 100 µM.

In the case of `COc1ccc(-c2nn(-c3cccc(Cl)c3)cc2C2CC(c3ccccc3)=NN2C(C)=O)cc1` (stereo not given), the GI50 in assay [1] is 2.62 µM; in assay [2] it was 32.6 µM; in [3], 2.81 µM; in assay [4], more than 100 µM; in assay [5], 4.97 µM; in assay [6], 3.48 µM. Further, the GI50 in assay [7] was 6.36 µM; in assay [8] it was 17 µM; in assay [9], 6.87 µM; in assay [10] it was 6.16 µM. The TGI in [1] was 6.4 µM; in assay [2], more than 100 µM; in [3], 20.1 µM; in assay [4], more than 100 µM; in [5] it was 22.6 µM; in assay [6], 20 µM. For the same compound, the TGI in assay [7] is more than 100 µM; in [8] it was more than 100 µM; in assay [9] it was 97.2 µM; in [10], more than 100 µM.

`C=C1CCC2C(/C=C(\C)CCC1O)OC(=O)C2C` (stereo not given): the GI50 in assay [1], in assay [2], in assay [3], in assay [4], in assay [5] and in assay [6] was more than 100 µM throughout. Further, the GI50 in [7], in assay [8], in assay [9] and in [10] was more than 100 µM each time. Also, the concentration for total growth inhibition (TGI) in assay [1], in [2], in [3], in [4], in assay [5] and in assay [6] was more than 100 µM in each case. In addition, the total growth inhibition concentration (TGI) in assay [7], in assay [8], in [9] and in [10] was more than 100 µM throughout.

As to `Cc1ccc2c(C(C[N+](=O)[O-])c3cccs3)c(-c3ccccc3)[nH]c2c1` (stereo not given), the GI50 in assay [1] is 2.25 µM; in assay [2], 1.23 µM; in assay [3] it was 1.57 µM; in assay [4], 1.54 µM; in assay [5], 2.24 µM; in [6], 2.15 µM. The GI50 in assay [7] is 2.03 µM; in assay [8], 1.72 µM; in assay [9], 2.26 µM; in [10] it was 2.99 µM. Also, the TGI in assay [1] was found to be 11.7 µM; in assay [2], 8.03 µM; in assay [3], 9.53 µM; in assay [4] it was 7.25 µM; in assay [5], 10.5 µM; in [6], 13.3 µM. The TGI was determined as 6.68 µM in assay [7], 7.05 µM in assay [8], 7.89 µM in assay [9] and 8.41 µM in assay [10].

In general, GI50 refers to the concentration that inhibits growth by half. What is called TGI is the concentration giving total growth inhibition. Lower therefore signals more potent growth arrest.
